From US9670214B2, “Small molecule myristate inhibitors of Bcr-abl and methods of use” (DANA-FARBER CANCER INSTITUTE, INC., priority 2007, dated 2017) come the findings set out here.

A value given as a limit tells only on which side of the number the result lay.

For experiment [1], the system named is Ba/F3 cells (IL-3 dependent murine pro-B cell line). Kind of experiment: Proliferation assay (MTT), parental Ba/F3 cells. The experiment is classed as cell-based. Conditions: Mus musculus, 48 h, drug concentrations 0.005-10 μM, read-out: BaF3. How it is done:
Interleukin-3 (IL-3) dependent murine pro-B cell line, Ba/F3, and murine myeloid precursor cell line, 32D, were maintained in RPMI-1640 medium supplemented with L-Glutamine, 10% FBS and 10 U/ml recombinant murine IL-3 (Roche). Mo7e human megakarioblastic cell line was grown in RPMI-1640 medium supplemented with L-Glutamine, 20% FBS and 5 ng/ml recombinant human granulocyte macrophage cell stimulating factor (GM-CSF) (R&D Systems) or 200 ng/ml stem cell factor (SCF) (Biosource).
(§1) Cells (0.3-0.6×10^6/ml) were plated in duplicate or triplicate in 96-well plates containing increasing drug concentrations (0.005-10 μM). After incubation at 37° C. in 5% CO2 for 48 h, the effect of the compounds on cell viability was determined by MTT (Promega) colorimetric dye reduction method. Inhibition of cell proliferation was calculated as a percentage of growth of DMSO treated cells, and IC50 values were determined with Microsoft Excel XLfit3.

In experiment [2] the target is Bcr-abl T315I (Ba/F3.p210^T315I cells) (Homo sapiens, UniProt P00519, T315I, cells depend on it). Put plainly: Proliferation assay (MTT), T315I mutant Bcr-abl expressing Ba/F3 cells. The class given is cell-based, murine. The settings on record: 48 h, drug concentrations 0.005-10 μM.
Excerpt: Wild type Bcr-abl expressing 32D (32D.p210) and Ba/F3 (Ba/F3.p210) cells, and mutant Bcr-abl expressing cell lines Ba/F3.p210^G250E, Ba/F3.p210^E255V, Ba/F3.p210^T315I, Ba/F3.p210^F317L and Ba/F3.p210^M351T, as well as Ba/F3 cells transformed with Flt-3-ITD kinase. Additional assays included Ba/F3 cells expressing the fusion protein kinases TEL-PDGFRβ, TEL-JAK1, NPM-ALK, TEL-cKit, Tel-Bmx, Tel-FGR3, Tel-Lck and Ba/F3.TPR-met cells. All the above cell lines were maintained in RPMI-1640 medium with L-Glutamine, 10% FBS and 1 mg/ml geneticin (Gibco).
as §1

`FC(F)(F)Oc1ccc(Nc2cc(-c3cccc4c3oc3ccccc34)ncn2)cc1`: the IC50 was more than 10 µM in experiment [1] and 4.6 µM in experiment [2].

With `NC(=O)C1CCCN(c2ncnc(Nc3ccc(OC(F)(F)F)cc3)c2Br)C1` (stereo not shown), the IC50 in experiment [1] and in experiment [2] was more than 10 µM each time.

Regarding `FC(F)(F)Oc1ccc(Nc2cc(-c3c[nH]c4ccccc34)ncn2)cc1`, the IC50 in experiment [1] was more than 10 µM; in experiment [2], 9.28 µM.

For the compound `Cc1ccc(NC(=O)c2ccc(CN3CCOCC3)c(C(F)(F)F)c2)cc1Nc1nccn1-c1cc(Nc2ccc(OC(F)(F)F)cc2)ncn1`, the figures for the IC50 in experiment [1] and in experiment [2] were more than 10 µM and 6.61 µM, respectively.

On to `Cc1nn(C)c(C)c1-c1cc(Nc2ccc(OC(F)(F)F)cc2)ncn1` [N-(4-(trifluoromethoxy)phenyl)-6-(1,3,5-trimethyl-1H-pyrazol-4-yl)pyrimidin-4-amine], for which the IC50 in experiment [1] and in experiment [2] was more than 10 µM each time.

As for `O=C(NC1CCN(Cc2ccccc2)C1)c1cc2c(Nc3ccc(OC(F)(F)F)cc3)ncnc2s1` (stereo not shown), the values for the IC50 in experiment [1] and in experiment [2] were 0.926 µM and 0.621 µM, respectively.

In the case of `O=C(c1cc2c(Nc3ccc(OC(F)(F)F)cc3)ncnc2s1)N1CCN(c2cccc(C(F)(F)F)c2)CC1`, the IC50 in experiment [1] turned out to be 4.55 µM; in experiment [2] it was 1.92 µM.

Regarding `O=C(NCCN1CCOCC1)c1cc2c(Nc3ccc(OC(F)(F)F)cc3)ncnc2s1` [drawing 343], the IC50 in experiment [1] and in experiment [2] was more than 10 µM in each case.

Consider `Cc1ccc(S(=O)(=O)Nc2ccc(-c3ncnc(Nc4ccc(OC(F)(F)F)cc4)c3C)cc2)cc1`, for which the IC50 in experiment [1] and in experiment [2] was more than 10 µM throughout.

On to `O=Cc1cc(-c2cc(Nc3ccc(OC(F)(F)F)cc3)ncn2)co1`, for which the IC50 in experiment [1] was more than 10 µM; in experiment [2], 3.83 µM.

Turning to `FC(F)(F)Oc1ccc(Nc2cc(-c3cccc4[nH]ccc34)ncn2)cc1`, the IC50 is more than 10 µM in experiment [1] and 6.67 µM in experiment [2].

Take `COc1cccc2cc(-c3ncnc(Nc4ccc(OC(F)(F)F)cc4)c3C)ccc12`: the IC50 in experiment [1] and in experiment [2] was more than 10 µM in each case.

As to `Cc1c(Nc2ccc(OC(F)(F)F)cc2)ncnc1-c1ccc(-c2ccccc2)cc1`, the IC50 in experiment [1] and in experiment [2] was more than 10 µM throughout.

As for `O=C(c1cc2c(Nc3ccc(OC(F)(F)F)cc3)ncnc2s1)N1CCC(O)CC1`, the IC50 in experiment [1] and in experiment [2] was more than 10 µM each time.

On to `FC(F)(F)Oc1ccc(Nc2cc(-c3cn[nH]c3)ncn2)cc1`, for which the results for the IC50 in experiment [1] and in experiment [2] were more than 10 µM and approximately 0.46 µM, respectively.

As to `CCNS(=O)(=O)c1ccc(-c2cc(Nc3ccc(OC(F)(F)F)cc3)ncn2)cc1`, the IC50 in experiment [1] was more than 10 µM; in experiment [2] it was 1.85 µM.

For the compound `Cc1c(Nc2ccc(OC(F)(F)F)cc2)ncnc1-c1cccc2[nH]ccc12`, the IC50 in experiment [1] and in experiment [2] was more than 10 µM each time.

Turning to `CN(C)C1CCN(C(=O)c2cc3c(Nc4ccc(OC(F)(F)F)cc4)ncnc3s2)C1` (stereo not shown), the IC50 in experiment [1] and in experiment [2] was more than 10 µM throughout.

With `CCS(=O)(=O)n1cc(-c2cc(Nc3ccc(OC(F)(F)F)cc3)ncn2)cn1`, the IC50 in experiment [1] was more than 10 µM; in experiment [2] it was 4.25 µM.

Regarding `NS(=O)(=O)c1ccc(-c2cc(Nc3ccc(OC(F)(F)F)cc3)ncn2)cc1`, the IC50 is more than 10 µM in experiment [1] and 1.05 µM in experiment [2].

Consider `CS(=O)(=O)c1ccc(-c2cc(Nc3ccc(OC(F)(F)F)cc3)ncn2)cc1`, for which the values for the IC50 in experiment [1] and in experiment [2] were more than 10 µM and 6.1 µM, respectively.

Regarding `FC(F)(F)Oc1ccc(Nc2cc(-n3ccc4cccnc43)ncn2)cc1`, the IC50 in experiment [1] and in experiment [2] was more than 10 µM each time.

On to `Cc1c(Nc2ccc(OC(F)(F)F)cc2)ncnc1-c1ccc(CN)cc1`, for which the IC50 in experiment [1] and in experiment [2] was more than 10 µM each time.

As to `O=S(=O)(NCCO)c1ccc(-c2cc(Nc3ccc(OC(F)(F)F)cc3)ncn2)cc1`, the IC50 in experiment [1] was more than 10 µM; in experiment [2] it was 1.45 µM.

Take `Cc1c(Nc2ccc(OC(F)(F)F)cc2)ncnc1-c1ccc(C(=O)NCCN2CCOCC2)cc1`: the figures for the IC50 in experiment [1] and in experiment [2] were 3.79 µM and 0.81 µM, respectively.

Regarding `Cc1ccc(S(=O)(=O)Nc2ccc(-c3cc(Nc4ccc(OC(F)(F)F)cc4)ncn3)cc2)cc1`, the IC50 in experiment [1] and in experiment [2] was more than 10 µM each time.

`O=C(NCCN1CCOCC1)c1cc2c(Nc3ccc(OC(F)(F)F)cc3)ncnc2s1` [drawing 332] gave an IC50 in experiment [2] of more than 10 µM.

With `O=Cc1cc(-c2cc(Nc3ccc(OC(F)(F)F)cc3)ncn2)ccc1F`, the values for the IC50 in experiment [1] and in experiment [2] were 4.12 µM and 5.84 µM, respectively.

Turning to `COc1cccc2cc(-c3cc(Nc4ccc(OC(F)(F)F)cc4)ncn3)ccc12`, the IC50 in experiment [1] and in experiment [2] was more than 10 µM in each case.

Regarding `Cc1c(Nc2ccc(OC(F)(F)F)cc2)ncnc1-c1cccc(C(=O)O)c1`, the IC50 in experiment [1] and in experiment [2] was more than 10 µM each time.

`FC(F)(F)Oc1ccc(Nc2cc(-c3ccc4[nH]ccc4c3)ncn2)cc1`: the IC50 was more than 10 µM in experiment [1] and 8.71 µM in experiment [2].

With `FC(F)(F)Oc1ccc(Nc2cc(-c3ccc(-c4ccccc4)cc3)ncn2)cc1`, the IC50 was more than 10 µM in experiment [1] and 3.18 µM in experiment [2].

Consider `FC(F)(F)Oc1ccc(Nc2cc(-c3cnn(Cc4ccccc4)c3)ncn2)cc1`, for which the IC50 is more than 10 µM in experiment [1] and 1.3 µM in experiment [2].

Take `OC[C@H]1OC(n2cnc3c(Nc4ccc(OC(F)(F)F)cc4)ncnc32)[C@H](O)[C@@H]1O` (stereo partly shown): in experiment [1], the IC50 was more than 10 µM.

`CCS(=O)(=O)Nc1ccc(-c2cc(Nc3ccc(OC(F)(F)F)cc3)ncn2)cc1`: in experiment [1], the IC50 amounted to 8.31 µM.

Turning to `Cn1c(C(=O)N2CCCC(CO)C2)cc2c(Nc3ccc(OC(F)(F)F)cc3)ncnc21` (stereo not shown), the IC50 in experiment [1] was determined as 7.29 µM.

Turning to `NC(=O)Cn1cc2c(Nc3ccc(OC(F)(F)F)cc3)ncnc2n1`, the IC50 in experiment [1] is more than 3.3 µM.

Regarding `Oc1cccc(Cn2cc3c(Nc4ccc(OC(F)(F)F)cc4)ncnc3n2)c1`, the IC50 in experiment [1] came out at 6.9 µM.

For the compound `O=[N+]([O-])c1cccc(-c2cn3cnc(Nc4ccc(OC(F)(F)F)cc4)cc3n2)c1` [2-(3-nitrophenyl)-N-(4-(trifluoromethoxy)phenyl)imidazo[1,2-c]pyrimidin-7-amine], in experiment [1], the IC50 is 9.6 µM.

Take `OCCn1cc2c(Nc3ccc(OC(F)(F)F)cc3)ncnc2n1` [2-(4-(4-(trifluoromethoxy)phenylamino)-2H-pyrazolo[3,4-d]pyrimidin-2-yl)ethanol]: the IC50 in experiment [1] was more than 10 µM.

On to `O=C(c1ccc2c(Nc3ccc(OC(F)(F)F)cc3)ncnc2c1)N1CCC(Br)CC1`, for which, in experiment [1], the IC50 stood at 7.42 µM.

Regarding `FC(F)(F)Oc1ccc(Nc2cc(-c3cc(NCCN4CCOCC4)ncn3)ncn2)cc1`, the IC50 in experiment [1] is more than 10 µM.

Consider `FC(F)(F)Oc1ccc(Nc2cc(Nc3nccn3-c3cccc(C(F)(F)F)c3)ncn2)cc1`, for which the IC50 in experiment [1] came to 2.56 µM.

Regarding `FC(F)(F)Oc1ccc(Nc2cc(Nc3cc(C4CC4)[nH]n3)ncn2)cc1`, the IC50 in experiment [1] is 5.62 µM.

Turning to `CCN(CC)S(=O)(=O)c1ccc(-c2ncnc(Nc3ccc(OC(F)(F)F)cc3)c2C)cc1`, the IC50 in experiment [1] is more than 10 µM.

Regarding `COCCCNC(=O)CCn1ccc2c(Nc3ccc(OC(F)(F)F)cc3)ncnc21`, the IC50 in experiment [1] was more than 10 µM.

`OC[C@H]1OC(n2ccc3c(Nc4ccc(OC(F)(F)F)cc4)ncnc32)[C@H](O)[C@@H]1O` (stereo partly shown): in experiment [1], the IC50 is more than 10 µM.

Consider `CN1CCCN(C(=O)c2ccc3c(Nc4ccc(OC(F)(F)F)cc4)ncnc3c2)CC1`, for which the IC50 in experiment [1] came to 6.98 µM.

Turning to `Cn1cnc2ncnc(Nc3ccc(OC(F)(F)F)cc3)c21`, in experiment [1], the IC50 is more than 10 µM.

For the compound `Cc1c(Nc2ccc(OC(F)(F)F)cc2)ncnc1-c1cnn(CC(C)C)c1`, in experiment [1], the IC50 was 1.46 µM.
